For one series, the target named is Cytochrome P450 2C9 (Homo sapiens, UniProt P11712). The experiment in a line: Inhibitory concentration against Cytochrome P450 2C9 in rats.
For series [1], the target named is T1, Peroxisome proliferator-activated receptor gamma (Homo sapiens, UniProt P37231).
T1 sequence (P37231 whole entry): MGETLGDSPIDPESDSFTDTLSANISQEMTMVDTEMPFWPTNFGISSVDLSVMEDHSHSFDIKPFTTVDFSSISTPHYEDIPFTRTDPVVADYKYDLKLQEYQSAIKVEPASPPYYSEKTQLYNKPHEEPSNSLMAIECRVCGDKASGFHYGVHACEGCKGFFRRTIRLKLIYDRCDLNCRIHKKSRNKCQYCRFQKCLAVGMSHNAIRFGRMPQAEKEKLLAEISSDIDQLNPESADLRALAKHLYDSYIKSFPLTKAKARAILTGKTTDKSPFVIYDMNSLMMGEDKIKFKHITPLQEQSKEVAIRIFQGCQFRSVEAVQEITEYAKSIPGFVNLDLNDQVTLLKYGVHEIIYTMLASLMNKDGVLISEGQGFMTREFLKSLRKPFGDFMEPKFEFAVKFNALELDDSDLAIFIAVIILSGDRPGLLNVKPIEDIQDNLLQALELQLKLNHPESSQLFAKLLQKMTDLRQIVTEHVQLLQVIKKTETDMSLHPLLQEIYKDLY
Description: Inhibition of human peroxisome proliferator activated receptor gamma binding.

In series [2] the target is T1, Peroxisome proliferator-activated receptor gamma.
Description: Maximal intrinsic response against peroxisome proliferator activated receptor gamma transactivation
The nature of series [3]: Area under plasma concentration time curve when administered to Sprague Dawley rats after once daily dosing for two weeks. To be noted: rat. It is filed as ADME.
Series [4] in a line: Area under plasma concentration time curve when administered to db/db mice at 30 mg/kg dose. It is filed as ADME, organism-based. To be noted: mouse, in vivo. Also noted: dose 30 mg/kg.
The conditions of series [5]: mouse, in vivo, 10 mg/kg.
Description: Area under plasma concentration time curve when administered to db/db mice at 10 mg/kg dose; Range = 250-700 uMh

Sequence of Cytochrome P450 2C9 (P11712 whole entry): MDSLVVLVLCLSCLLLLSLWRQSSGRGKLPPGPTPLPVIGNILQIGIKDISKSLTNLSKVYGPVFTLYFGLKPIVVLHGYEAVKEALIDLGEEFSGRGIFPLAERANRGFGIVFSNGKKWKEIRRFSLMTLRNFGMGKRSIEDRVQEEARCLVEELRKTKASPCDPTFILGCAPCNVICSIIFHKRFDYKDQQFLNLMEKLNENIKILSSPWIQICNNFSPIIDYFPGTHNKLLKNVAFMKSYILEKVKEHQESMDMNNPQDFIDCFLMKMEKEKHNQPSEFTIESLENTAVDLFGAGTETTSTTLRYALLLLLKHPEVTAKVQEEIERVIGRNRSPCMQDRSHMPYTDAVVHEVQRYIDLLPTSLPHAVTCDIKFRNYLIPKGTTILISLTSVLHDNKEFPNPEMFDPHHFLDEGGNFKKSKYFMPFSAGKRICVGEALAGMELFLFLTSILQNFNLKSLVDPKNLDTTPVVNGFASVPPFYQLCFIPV

On to `Cc1[nH]c2ccc(OC(F)(F)F)cc2c1Cc1cccc(O[C@@H](C)C(=O)O)c1`, for which half-maximal inhibition at Cytochrome P450 2C9 (IC50) was put at 50 nM. This lies in the double-digit nanomolar range.

Turning to `COc1ccc(C(=O)n2c(C)c(Cc3cccc(OCC#N)c3)c3cc(OC(F)(F)F)ccc32)cc1`, in series [1], the IC50 – broadly, the concentration at which inhibition is half-maximal – turned out to be 42 nM. For the same compound, the EC50 (in general, the concentration at which the effect is half-maximal) in series [2] is 16 nM.

Turning to `Cc1c(Oc2cccc(O[C@@H](C)C(=O)O)c2)c2cc(OC(F)(F)F)ccc2n1-c1noc2cc(Cl)ccc12`, the IC50 in series [1] is 33 nM. In series [2], the EC50 turned out to be 195 nM.

As to `COc1ccc(-n2c(C)c(Cc3cccc(O[C@@H](C)C(=O)O)c3)c3cc(OC(F)(F)F)ccc32)cc1`, the IC50 in series [1] was found to be 1 nM. For the same compound, in series [2], the 50% effective concentration (EC50) stood at 3 nM.

Compound `Cc1c(Oc2cc(Cl)cc(O[C@@H](C)C(=O)O)c2)c2cc(OC(F)(F)F)ccc2n1-c1noc2cc(Cl)ccc12` had an IC50 in series [1] of 109 nM. Also, in series [2], it took 114 nM to reach a half-maximal effect (EC50).

Compound `CN1C(=O)SC(Cc2ccc(OCCN(C)c3ccccn3)cc2)C1=O` (stereo not given) had an IC50 in series [1] above 50000 nM. The compound also came in with an EC50 in series [2] above 3000 nM.

In the case of `Cc1c(Oc2cc(O[C@@H](C)C(=O)O)ccc2Cl)c2cc(OC(F)(F)F)ccc2n1-c1noc2cc(Cl)ccc12`, in series [1], the concentration for half-maximal inhibition (IC50) came out at 5 nM. Besides, the midpoint of the response in series [2], the EC50, lay at 3 nM.

As for `COc1ccc2c(-n3c(C)c(Cc4cc(O[C@H](C)C(=O)O)ccc4Cl)c4cc(OC(F)(F)F)ccc43)noc2c1`, in series [1], the IC50 stood at 2 nM. Besides, the AUC in series [3] was 1030 uMh; in series [4], 660 uMh. Further, in series [2], the midpoint of the response, the EC50, lay at 3 nM.

`CCCc1ccc(Oc2c(C)n(-c3noc4cc(Cl)ccc34)c3ccc(OC(F)(F)F)cc23)cc1O[C@@H](C)C(=O)O` showed a half-maximal inhibitory concentration (IC50) in series [1] of 20 nM. In series [2], the EC50 came to 39 nM.

Take `COc1ccc2ncc(-n3c(C)c(Cc4cccc(O[C@@H](C)C(=O)O)c4)c4cc(OC(F)(F)F)ccc43)cc2c1`: the IC50 in series [1] came to 29 nM. The compound also yielded an EC50 in series [2] of 49 nM.

Consider `CCCc1c(Oc2c(C)n(-c3noc4cc(Cl)ccc34)c3ccc(OC(F)(F)F)cc23)cccc1O[C@@H](C)C(=O)O`, for which the IC50 in series [1] was determined as 641 nM.

For `COc1ccc2nc(-n3c(C)c(Cc4cccc(O[C@@H](C)C(=O)O)c4)c4cc(OC(F)(F)F)ccc43)ccc2c1`, the half-maximal inhibitory concentration (IC50) in series [1] was determined as 135 nM.

Consider `Cc1c(Oc2ccc(Cl)c(O[C@@H](C)C(=O)O)c2)c2cc(OC(F)(F)F)ccc2n1-c1noc2cc(Cl)ccc12`, for which, in series [1], the IC50 is 1 nM. In series [2], this compound came in with an EC50 of 3 nM.

The compound `C#CCOc1cccc(Cc2c(C)n(C(=O)c3ccc(OC)cc3)c3ccc(OC(F)(F)F)cc23)c1` came in with an IC50 in series [1] of 62 nM. In series [2], the half-maximal effective concentration (EC50) was determined as 31 nM.

In the case of `Cc1c(Cc2cccc(O[C@@H](C)C(=O)O)c2)c2cc(OC(F)(F)F)ccc2n1-c1ccccn1`, in series [1], the concentration for half-maximal inhibition (IC50) was 466 nM.

`CN(CCOc1ccc(CC2SC(=O)NC2=O)cc1)c1ccccn1` (stereo not given) [ROSIGLITAZONE]: the figures for the AUC in series [3] and in series [5] were 2700 uMh and 700 uMh, respectively.

These data come from ChEMBL document CHEMBL1145238, “Selective PPARgamma modulators with improved pharmacological profiles” (Bioorg Med Chem Lett, 2005).
